Numbers after ± are expanded uncertainties.
Details: Fluid (supercritical or subcritical phases), vibrating tube

CCCCCO [pentan-1-ol]
Details	mass density [kg/m3]
312.96 K, 512 kPa	799.65 ± 0.43
312.96 K, 1022 kPa	800.04 ± 0.43
312.96 K, 1998 kPa	800.77 ± 0.44
312.96 K, 3005 kPa	801.53 ± 0.44
312.96 K, 4003 kPa	802.28 ± 0.44
312.96 K, 5002 kPa	803.02 ± 0.44
312.96 K, 6018 kPa	803.76 ± 0.44
312.96 K, 6994 kPa	804.49 ± 0.44
312.96 K, 8008 kPa	805.21 ± 0.44
312.96 K, 9005 kPa	805.93 ± 0.44
312.96 K, 10008 kPa	806.66 ± 0.44
312.96 K, 11008 kPa	807.37 ± 0.44
312.96 K, 12000 kPa	808.07 ± 0.44
312.96 K, 13024 kPa	808.78 ± 0.44
312.96 K, 13987 kPa	809.45 ± 0.44
312.96 K, 15014 kPa	810.14 ± 0.45
312.96 K, 15991 kPa	810.8 ± 0.45
312.96 K, 17019 kPa	811.48 ± 0.45
312.96 K, 17991 kPa	812.12 ± 0.45
312.96 K, 19007 kPa	812.79 ± 0.45
312.96 K, 19992 kPa	813.44 ± 0.45
312.96 K, 21031 kPa	814.1 ± 0.45
312.96 K, 22041 kPa	814.76 ± 0.45
312.96 K, 23014 kPa	815.41 ± 0.45
312.96 K, 24003 kPa	816.04 ± 0.45
312.96 K, 25037 kPa	816.73 ± 0.45
322.89 K, 520 kPa	792.06 ± 0.43
322.89 K, 1010 kPa	792.47 ± 0.43
322.89 K, 2005 kPa	793.27 ± 0.43
322.89 K, 3007 kPa	794.07 ± 0.44
322.89 K, 4005 kPa	794.86 ± 0.44
322.89 K, 5018 kPa	795.63 ± 0.44
322.89 K, 6001 kPa	796.42 ± 0.44
322.89 K, 7016 kPa	797.2 ± 0.44
322.89 K, 8020 kPa	797.97 ± 0.44
322.89 K, 8997 kPa	798.71 ± 0.44
322.89 K, 10001 kPa	799.47 ± 0.44
322.89 K, 11005 kPa	800.21 ± 0.44
322.89 K, 11996 kPa	800.95 ± 0.44
322.89 K, 13002 kPa	801.68 ± 0.44
322.89 K, 14013 kPa	802.4 ± 0.44
322.89 K, 15005 kPa	803.11 ± 0.44
322.89 K, 16014 kPa	803.82 ± 0.45
322.89 K, 17001 kPa	804.51 ± 0.45
322.89 K, 18016 kPa	805.21 ± 0.45
322.89 K, 19012 kPa	805.89 ± 0.45
322.89 K, 19992 kPa	806.56 ± 0.45
322.89 K, 21036 kPa	807.26 ± 0.45
322.89 K, 22003 kPa	807.92 ± 0.45
322.89 K, 23024 kPa	808.61 ± 0.45
322.89 K, 23994 kPa	809.26 ± 0.45
322.89 K, 25023 kPa	810 ± 0.45
332.79 K, 493 kPa	784.29 ± 0.43
332.79 K, 1014 kPa	784.76 ± 0.43
332.79 K, 2006 kPa	785.61 ± 0.43
332.79 K, 3025 kPa	786.48 ± 0.43
332.79 K, 4011 kPa	787.28 ± 0.44
332.79 K, 5020 kPa	788.11 ± 0.44
332.79 K, 6003 kPa	788.91 ± 0.44
332.79 K, 6997 kPa	789.73 ± 0.44
332.79 K, 8009 kPa	790.54 ± 0.44
332.79 K, 8995 kPa	791.31 ± 0.44
332.79 K, 9996 kPa	792.12 ± 0.44
332.79 K, 11018 kPa	792.9 ± 0.44
332.79 K, 11995 kPa	793.66 ± 0.44
332.79 K, 13023 kPa	794.45 ± 0.44
332.79 K, 13999 kPa	795.19 ± 0.44
332.79 K, 15010 kPa	795.95 ± 0.44
332.79 K, 16028 kPa	796.68 ± 0.44
332.79 K, 17003 kPa	797.41 ± 0.45
332.79 K, 18040 kPa	798.14 ± 0.45
332.79 K, 19004 kPa	798.84 ± 0.45
332.79 K, 20035 kPa	799.59 ± 0.45
332.79 K, 21024 kPa	800.29 ± 0.45
332.79 K, 21993 kPa	800.97 ± 0.45
332.79 K, 23039 kPa	801.71 ± 0.45
332.79 K, 24015 kPa	802.4 ± 0.45
332.79 K, 25022 kPa	803.12 ± 0.45
342.76 K, 505 kPa	776.31 ± 0.43
342.76 K, 997 kPa	776.77 ± 0.43
342.76 K, 1995 kPa	777.69 ± 0.43
342.76 K, 3011 kPa	778.59 ± 0.43
342.76 K, 4012 kPa	779.47 ± 0.43
342.76 K, 5011 kPa	780.34 ± 0.44
342.76 K, 6011 kPa	781.22 ± 0.44
342.76 K, 7003 kPa	782.03 ± 0.44
342.76 K, 8015 kPa	782.91 ± 0.44
342.76 K, 9000 kPa	783.73 ± 0.44
342.76 K, 10019 kPa	784.58 ± 0.44
342.76 K, 11020 kPa	785.4 ± 0.44
342.76 K, 12002 kPa	786.2 ± 0.44
342.76 K, 13016 kPa	787.02 ± 0.44
342.76 K, 14024 kPa	787.81 ± 0.44
342.76 K, 15002 kPa	788.59 ± 0.44
342.76 K, 16007 kPa	789.36 ± 0.44
342.76 K, 17037 kPa	790.15 ± 0.44
342.76 K, 17988 kPa	790.87 ± 0.45
342.76 K, 19037 kPa	791.66 ± 0.45
342.76 K, 20003 kPa	792.38 ± 0.45
342.76 K, 21015 kPa	793.14 ± 0.45
342.76 K, 22019 kPa	793.88 ± 0.45
342.76 K, 23039 kPa	794.62 ± 0.45
342.76 K, 24027 kPa	795.36 ± 0.45
342.76 K, 25028 kPa	796.1 ± 0.45
352.71 K, 508 kPa	768.15 ± 0.43
352.71 K, 1011 kPa	768.66 ± 0.43
352.71 K, 1995 kPa	769.61 ± 0.43
352.71 K, 3014 kPa	770.57 ± 0.43
352.71 K, 3998 kPa	771.49 ± 0.43
352.71 K, 5022 kPa	772.45 ± 0.43
352.71 K, 6012 kPa	773.35 ± 0.44
352.71 K, 7006 kPa	774.26 ± 0.44
352.71 K, 8024 kPa	775.17 ± 0.44
352.71 K, 9005 kPa	776.05 ± 0.44
352.71 K, 10016 kPa	776.94 ± 0.44
352.71 K, 11026 kPa	777.81 ± 0.44
352.71 K, 12001 kPa	778.65 ± 0.44
352.71 K, 13002 kPa	779.5 ± 0.44
352.71 K, 14026 kPa	780.35 ± 0.44
352.71 K, 15000 kPa	781.18 ± 0.44
352.71 K, 16005 kPa	781.98 ± 0.44
352.71 K, 17023 kPa	782.81 ± 0.44
352.71 K, 18003 kPa	783.59 ± 0.44
352.71 K, 19049 kPa	784.43 ± 0.45
352.71 K, 20035 kPa	785.2 ± 0.45
352.71 K, 21002 kPa	785.96 ± 0.45
352.71 K, 21995 kPa	786.73 ± 0.45
352.71 K, 23020 kPa	787.52 ± 0.45
352.71 K, 24045 kPa	788.32 ± 0.45
352.71 K, 25009 kPa	789.05 ± 0.45
362.59 K, 517 kPa	759.7 ± 0.43
362.59 K, 1023 kPa	760.25 ± 0.43
362.59 K, 2005 kPa	761.26 ± 0.43
362.59 K, 3010 kPa	762.29 ± 0.43
362.59 K, 3998 kPa	763.28 ± 0.43
362.59 K, 5006 kPa	764.25 ± 0.43
362.59 K, 6013 kPa	765.23 ± 0.43
362.59 K, 7014 kPa	766.21 ± 0.44
362.59 K, 8007 kPa	767.16 ± 0.44
362.59 K, 9020 kPa	768.1 ± 0.44
362.59 K, 10006 kPa	769.02 ± 0.44
362.59 K, 10991 kPa	769.93 ± 0.44
362.59 K, 12025 kPa	770.87 ± 0.44
362.59 K, 13008 kPa	771.76 ± 0.44
362.59 K, 13998 kPa	772.62 ± 0.44
362.59 K, 15017 kPa	773.51 ± 0.44
362.59 K, 16000 kPa	774.37 ± 0.44
362.59 K, 17013 kPa	775.24 ± 0.44
362.59 K, 18032 kPa	776.11 ± 0.44
362.59 K, 19003 kPa	776.9 ± 0.44
362.59 K, 20030 kPa	777.77 ± 0.45
362.59 K, 20987 kPa	778.55 ± 0.45
362.59 K, 22033 kPa	779.4 ± 0.45
362.59 K, 23000 kPa	780.2 ± 0.45
362.59 K, 24031 kPa	781.02 ± 0.45
362.59 K, 25026 kPa	781.82 ± 0.45

— the NIST ThermoML archive (doi:10.1016/j.jct.2007.07.005)
